Test results reported in article PMC9048745, “Physicochemical investigation of a novel curcumin diethyl γ-aminobutyrate, a carbamate ester prodrug of curcumin with enhanced anti-neuroinflammatory activity” (PLoS ONE, 2022).

Columns and labels:
BV-2 microglial cells = experiment: Cytotoxicity (MTT assay); format: cell-based, murine; details: BV-2 cells, 24 h
Method: BV-2 microglial cells were cultured in DMEM supplemented with 10% fetal bovine serum, 2 mM L-glutamine, 1% penicillin/streptomycin (100 units/mL penicillin and 100 μg/mL streptomycin) at 37°C in 5% CO2. BV-2 microglial cells were plated in a 24-well plate at a density of 2 × 10^5 cells/well for 24 h. Various concentrations at 0, 1.25, 2.5, 5, 10, or 20 μM of curcumin or CUR-2GE were determined for a non-toxic concentration. After 24 h, cell viability was assessed by an MTT assay. The media was removed and replaced with an MTT solution in PBS (0.5 mg/mL). After 3-h incubation, the MTT solution was discarded, and formazan crystals formed after the reaction was dissolved in DMSO. The absorbance was then read at 540 nm using a microplate reader (CLARIOstar®, BMG Labtech, Ortenberg, Germany). The percentage of cell viability was expressed relative to the control cells. In addition, the cell viability of BV-2 microglial cells treated with LPS and a combination of LPS and the test compounds was also determined.

[1] = Identification of incomplete hydrolytic products of CUR-2GE (UPLC-MS/MS); format: physicochemical; details: buffer pH 1.2, 37°C, 24 h; ND = not detected
Method: The incomplete hydrolytic products of CUR-2GE were identified in buffers (pH 1.2, 4.5, 6.8 and 7.4) and human plasma. For hydrolysis in the buffer solutions, the stock solution of CUR-2GE at 200 μg/mL was diluted with a pre-incubated buffer in a vial at 37°C to obtain a final concentration at 10 μg/mL. Samples in buffers pH 1.2 and 4.5 were subsequently incubated at 37°C for 24 h while those in buffers pH 6.8 and 7.4 were incubated at 37°C for 7 min. For hydrolysis in human plasma, the stock solution of CUR-2GE at 100 μg/mL in the diluent was prepared and diluted with pre-incubated human plasma at 37°C for 5 min to obtain a final concentration of 5 μg/mL. The sample was incubated at 37°C for 1 h and an aliquot of 300 μL was added with 300 μL of acetonitrile to stop the reaction. The reaction mixture was then centrifuged at 4°C at 14,000 rpm for 30 min. The supernatant was analyzed using UPLC-MS/MS described below. CUR-2GE, CUR-1GE and curcumin standards were prepared at 10 μg/mL in diluent (2% acetic acid in water: acetonitrile (80: 20, v/v)) and were subjected to UPLC-MS/MS analysis. The retention times and MS/MS spectra of CUR-2GE and its hydrolytic products in buffers and human plasma were compared with those of the standards. The UPLC-MS/MS approach was modified from previous studies. […]

[2] = design: method as in PMID 29678124, PMID 25923809, PMID 27758710; details: practically insoluble = <0.1 mg/mL; cited from earlier work
[3] = design: method as in PMID 9278892; details: cited from earlier work

Substance: curcumin
- non-toxic concentrations (no cytotoxicity) (BV-2 microglial cells): ≤ 10 µM
- detection by UPLC-MS/MS after incubation of CUR-2GE [1]: not detected
- USP solubility classification [2]: practically insoluble
- half-life in human plasma, previously reported [3]: 8 h
